Measurements as given in US8906914B2, “Ethylene diamine modulators of fatty acid hydrolase” (priority 2009, dated 2014).
Counter-ions that a name gives are not always drawn.

Assays:
FAAH = molecular target: T1, FAAH (Homo sapiens, UniProt O00519); assay: Human FAAH assay (Assay Method 1), 3H-anandamide hydrolysis in cell homogenate; assay type: biochemical; design: expressed in transfected cells; alternatively T84 frozen cell pellets (endogenous FAAH)
T1 sequence (O00519 1-579): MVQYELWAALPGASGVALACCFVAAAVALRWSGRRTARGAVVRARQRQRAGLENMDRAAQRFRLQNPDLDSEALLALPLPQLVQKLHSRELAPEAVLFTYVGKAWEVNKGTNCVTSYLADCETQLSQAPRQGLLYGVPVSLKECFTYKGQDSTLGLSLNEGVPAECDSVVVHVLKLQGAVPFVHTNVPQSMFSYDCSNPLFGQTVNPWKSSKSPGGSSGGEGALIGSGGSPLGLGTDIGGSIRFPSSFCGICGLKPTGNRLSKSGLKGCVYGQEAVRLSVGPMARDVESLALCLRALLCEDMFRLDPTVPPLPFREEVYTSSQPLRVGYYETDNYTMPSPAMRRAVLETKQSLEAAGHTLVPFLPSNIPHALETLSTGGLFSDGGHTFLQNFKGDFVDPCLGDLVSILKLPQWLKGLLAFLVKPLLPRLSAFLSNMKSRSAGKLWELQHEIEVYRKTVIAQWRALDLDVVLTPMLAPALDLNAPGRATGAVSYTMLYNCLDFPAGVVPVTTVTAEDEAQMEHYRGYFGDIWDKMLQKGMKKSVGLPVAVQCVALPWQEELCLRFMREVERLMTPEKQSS
Method: A. Transfection of Cells with Human FAAH
(§1) A 10-cm tissue culture dish with a confluent monolayer of SK-N-MC cells was split 2 days (d) prior to transfection. Using sterile technique, the media was removed and the cells were detached from the dish by the addition of trypsin. One fifth of the cells were then placed onto a new 10-cm dish. Cells were grown in a 37° C. incubator with 5% CO2 in Minimal Essential Media Eagle with 10% Fetal Bovine Serum. After 2 d, cells were approximately 80% confluent. These cells were removed from the dish with trypsin and pelleted in a clinical centrifuge. The pellet was re-suspended in 400 μL complete media and transferred to an electroporation cuvette with a 0.4 cm gap between the electrodes. Supercoiled human FAAH cDNA (1 μg) was added to the cells and mixed. The voltage for the electroporation was set at 0.25 kV, and the capacitance was set at 960 μF. After electroporation, the cells were diluted into complete media (10 mL) and plated onto four 10-cm dishes. Because of the variability in the efficiency of electroporation, four different concentrations of cells were plated. The ratios used were 1:20, 1:10, and 1:5, with the remainder of the cells being added to the fourth dish. The cells were allowed to recover for 24 h before adding the selection media (complete media with 600 μg/mL G418). After 10 d, dishes were analyzed for surviving colonies of cells. Dishes with well-isolated colonies were used. Cells from individual colonies were isolated and tested.
(§2) The assay mixture consisted of 50 μL of the cell homogenate, 10 μL of the test compound, and 40 μL of anandamide [1-3H-ethanolamine] (^3H-AEA, Perkin-Elmer, 10.3 Ci/mmol), which was added last, for a final tracer concentration of 80 nM. The reaction mixture was incubated at rt for 1 h. During the incubation, 96-well Multiscreen filter plates (catalog number MAFCNOB50; Millipore, Bedford, Mass., USA) were loaded with 25 μL of activated charcoal (Multiscreen column loader, catalog number MACL09625, Millipore) and washed once with 100 μL of MeOH. Also during the incubation, 96-well DYNEX MicroLite plates (catalog number NL510410) were loaded with 100 μL of MicroScint40 (catalog number 6013641, Packard Bioscience, Meriden, Conn., USA). After the 1 h incubation, 60 μL of the reaction mixture were transferred to the charcoal plates, which were then assembled on top of the DYNEX plates using Centrifuge Alignment Frames (catalog number MACF09604, Millipore). The unbound labeled ethanolamine was centrifuged through to the bottom plate (5 min at 2000 rpm), which was preloaded with the scintillant, as described above. The plates were sealed and left at rt for 1 h before counting on a Hewlett Packard TopCount.
(§3) Where activity is shown as greater than (>) a particular value, the value is the solubility limit of the compound in the assay medium or the highest concentration tested in the assay.

Rat FAAH-1 = molecular target: T2, Rat FAAH-1 (Rattus norvegicus, UniProt P97612); assay: Rat FAAH-1 assay (Assay Method 2), 3H-anandamide hydrolysis in cell homogenate; assay type: biochemical
T2 construct: expressed in transfected cells
T2 sequence (P97612 1-579): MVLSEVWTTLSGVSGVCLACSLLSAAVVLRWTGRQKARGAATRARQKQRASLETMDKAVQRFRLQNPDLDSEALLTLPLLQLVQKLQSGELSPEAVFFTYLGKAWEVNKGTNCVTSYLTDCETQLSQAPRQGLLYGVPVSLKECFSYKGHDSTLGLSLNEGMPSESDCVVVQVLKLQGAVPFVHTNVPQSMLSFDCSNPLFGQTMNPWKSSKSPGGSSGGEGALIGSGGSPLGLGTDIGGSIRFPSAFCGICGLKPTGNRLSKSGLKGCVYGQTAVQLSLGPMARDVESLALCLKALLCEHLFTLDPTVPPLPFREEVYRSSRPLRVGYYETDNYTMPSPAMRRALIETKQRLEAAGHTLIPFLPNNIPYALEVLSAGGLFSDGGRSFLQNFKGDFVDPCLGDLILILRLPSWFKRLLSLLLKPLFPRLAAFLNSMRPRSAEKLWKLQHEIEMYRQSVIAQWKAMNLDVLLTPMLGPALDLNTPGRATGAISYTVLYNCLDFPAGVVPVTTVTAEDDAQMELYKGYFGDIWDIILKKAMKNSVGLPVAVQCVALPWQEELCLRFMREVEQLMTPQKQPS
Method: A. Transfection of Cells with Rat FAAH-1
as §1, with “rat” for “human”
as §2, with “[1-^3H-ethanolamine]” for “[1-3H-ethanolamine]”
as §3

Compound	IC50 (FAAH) [µM]	IC50 (Rat FAAH-1) [µM]
N[C@H](CNc1cc(-c2ccc(C(F)(F)F)c(Cl)c2)ncn1)c1ccc2c(c1)OC(F)(F)O2 [Example 31, (1S)—N^2-[6-(3-Chloro-4-trifluoromethyl-phenyl)-pyrimidin-4-yl]-1-(2,2-difluoro-benzo[1,3]dioxol-5-yl)-ethane-1,2-diamine]	0.63	0.77
N[C@@H](CNc1cc(-c2ccc(C(F)(F)F)c(Cl)c2)ncn1)c1ccc2c(c1)OC(F)(F)O2 [Example 32, (1R)—N^2-[6-(3-Chloro-4-trifluoromethyl-phenyl)-pyrimidin-4-yl]-1-(2,2-difluoro-benzo[1,3]dioxol-5-yl)-ethane-1,2-diamine]	0.03	0.011
N#Cc1ccc([C@H](N)CNc2cc(-c3ccc(C(F)(F)F)c(Cl)c3)ncn2)cc1 [Example 33, (1S)-4-{1-Amino-2-[6-(3-chloro-4-trifluoromethyl-phenyl)-pyrimidin-4-ylamino]-ethyl}-benzonitrile]	0.57	1
N#Cc1ccc([C@@H](N)CNc2cc(-c3ccc(C(F)(F)F)c(Cl)c3)ncn2)cc1 [Example 34, (1R)-4-{1-Amino-2-[6-(3-chloro-4-trifluoromethyl-phenyl)-pyrimidin-4-ylamino]-ethyl}-benzonitrile]	0.077	0.13
NC(CNc1cc(-c2ccc(C(F)(F)F)c(Cl)c2)ncn1)c1ccccc1F (stereo not shown) [Example 35, N^2-[6-(3-Chloro-4-trifluoromethyl-phenyl)-pyrimidin-4-yl]-1-(2-fluoro-phenyl)-ethane-1,2-diamine]	0.17	0.28
N[C@H](CNc1cc(-c2ccc(C(F)(F)F)c(Cl)c2)ncn1)c1cccc(F)c1 [Example 36, (1S)—N^2-[6-(3-Chloro-4-trifluoromethyl-phenyl)-pyrimidin-4-yl]-1-(3-fluoro-phenyl)-ethane-1,2-diamine, trifluoroacetic acid salt]	1	2.6
N[C@@H](CNc1cc(-c2ccc(C(F)(F)F)c(Cl)c2)ncn1)c1cccc(F)c1 [Example 37, (1R)—N^2-[6-(3-Chloro-4-trifluoromethyl-phenyl)-pyrimidin-4-yl]-1-(3-fluoro-phenyl)-ethane-1,2-diamine, trifluoroacetic acid salt]	0.039	0.11
N[C@H](CNc1cc(-c2ccc(C(F)(F)F)c(Cl)c2)ncn1)c1ccc(Cl)cc1 [Example 38, (1S)—N^2-1-(4-Chloro-phenyl)-[6-(3-chloro-4-trifluoromethyl-phenyl)-pyrimidin-4-yl]-ethane-1,2-diamine, trifluoroacetic acid salt]	1.6	2.2

Now from value to compound:

IC50 (FAAH) [µM]	IC50 (Rat FAAH-1) [µM]	Compound
0.066	0.04	N[C@@H](CNc1cc(-c2ccc(C(F)(F)F)c(Cl)c2)ncn1)c1ccc(Cl)cc1 [Example 39, (1R)—N^2-1-(4-Chloro-phenyl)-[6-(3-chloro-4-trifluoromethyl-phenyl)-pyrimidin-4-yl]-ethane-1,2-diamine, trifluoroacetic acid salt]
1	5	N[C@H](CNc1cc(-c2ccc(C(F)(F)F)c(Cl)c2)ncn1)c1ccc(F)c(F)c1 [Example 40, (1S)—N^2-[6-(3-Chloro-4-trifluoromethyl-phenyl)-pyrimidin-4-yl]-1-(3,4-difluoro-phenyl)-ethane-1,2-diamine, trifluoroacetic acid salt]
0.02	0.06	N[C@@H](CNc1cc(-c2ccc(C(F)(F)F)c(Cl)c2)ncn1)c1ccc(F)c(F)c1 [Example 41, (1R)—N^2-[6-(3-Chloro-4-trifluoromethyl-phenyl)-pyrimidin-4-yl]-1-(3,4-difluoro-phenyl)-ethane-1,2-diamine, trifluoroacetic acid salt]
8	5	N[C@H](CNc1cc(-c2ccc(C(F)(F)F)c(Cl)c2)ncn1)c1ccc(Cl)c(Cl)c1 [Example 42, (1S)—N^2-[6-(3-Chloro-4-trifluoromethyl-phenyl)-pyrimidin-4-yl]-1-(3,4-dichloro-phenyl)-ethane-1,2-diamine]
0.2	0.095	N[C@@H](CNc1cc(-c2ccc(C(F)(F)F)c(Cl)c2)ncn1)c1ccc(Cl)c(Cl)c1 [Example 43, (1R)—N^2-[6-(3-Chloro-4-trifluoromethyl-phenyl)-pyrimidin-4-yl]-1-(3,4-dichloro-phenyl)-ethane-1,2-diamine]
0.08	0.07	N[C@@H](CNc1cc(-c2ccc(C(F)(F)F)c(Cl)c2)ncn1)c1ccc(Cl)c(F)c1 [Example 45, (1R)—N^2-1-(4-Chloro-3-fluoro-phenyl)-[6-(3-chloro-4-trifluoromethyl-phenyl)-pyrimidin-4-yl]-ethane-1,2-diamine]
